Columns and labels:
[1] = tested on: human retinal pigmented epithelial cells; assay: CCK-8 analysis and LDH activity analysis in retinal pigmented epithelial cells; assay type: cell-based; conditions: ARPE young and doxorubicin-senescent; FIG. 6D, 6E
Procedure: Young cells (1×10^3 cells/well) or senescent cells (2×10^3 cells/well) were dispensed into a 96-well plate, and cultured overnight in a 37° C., 5% CO2 incubator.
Homoharringtonine, ABT263 and rapamycin were treated at each concentration, and then incubated for 4 days in a 37° C., 5% CO2 incubator. 10 μl of CCK-8 reagent (Dojindo Molecular Technologies Inc., Kumamoto, Japan) was added to each well, and incubated for 2 hours in an incubator. Then, the absorbance was measured at 450 nm using a Microplate reader. The degree of cell survival was expressed as a relative value for the absorbance of the control group treated with only DMSO as 100%.
Cytotoxicity against young and senescent cells was investigated with a lactate dehydrogenase (LDH) activity kit (Dojindo Molecular Technologies Inc.). Young cells (1×10^3 cells/100 μl/well) or senescent cells (2×10^3 cells/100 μl/well) were dispensed into a 96-well plate, and then cultured overnight in a 37° C., 5% CO2 incubator.
Homoharringtonine, ABT263 and rapamycin were treated at each concentration, and then incubated for 4 days in a 37° C., 5% CO2 incubator. […] 50 μl of the LDH reaction stop solution was added, and absorbance was measured at 490 nm using a microplate reader. The level of LDH activity was expressed as a relative value based on the absorbance of the control group treated with only DMSO.

[2] = tested on: replicative senescent human fibroblasts; assay: LDH activity analysis (cytotoxicity) in young and replicative senescent human fibroblasts; assay type: cell-based; conditions: young vs replicative senescent fibroblasts; FIG. 2C
Procedure: Cytotoxicity against young and senescent cells was investigated with a lactate dehydrogenase (LDH) activity kit (Dojindo Molecular Technologies Inc.). Young cells (1×10^3 cells/100 μl/well) or senescent cells (2×10^3 cells/100 μl/well) were dispensed into a 96-well plate, and then cultured overnight in a 37° C., 5% CO2 incubator. Homoharringtonine, ABT263 and rapamycin were treated at each concentration, and then incubated for 4 days in a 37° C., 5% CO2 incubator. After transferring the cell culture solution to a 1.5 ml tube, it was centrifuged at 4° C. and 12,000 rpm. 100 μl of the supernatant was dispensed into a 96-well plate, and 100 μl of the LDH measurement solution was added to each well, followed by reaction in a CO2 incubator for 30 minutes. 50 μl of the LDH reaction stop solution was added, and absorbance was measured at 490 nm using a microplate reader. The level of LDH activity was expressed as a relative value based on the absorbance of the control group treated with only DMSO.

Q: With `COC(=O)C[C@](O)(CCCC(C)(C)O)C(=O)O[C@@H]1C(OC)=C[C@]23CCCN2CCc2cc4c(cc2[C@H]13)OCO4` [homoharringtonine, Homoharringtonine] as the compound, how does the “senescent cell-specific cytotoxicity (CCK-8 analysis and LDH activity analysis)” value [1] read?
A: not induced

Q: What about the “LDH activity (cytotoxicity)” value [2] of the same compound?
A: increased only in replicative senescent cells compared to young cells

From patent US11992492B2, “Composition for preventing or treating cellular senescence-associated diseases, containing homoharringtonine as active ingredient” (RESEARCH COOPERATION FOUNDATION OF YEUNGNAM UNIVERSITY, priority 2018, dated 2024)
